The test concerns the target T1, hNav1.7 and the β1 subunit (Homo sapiens, UniProt Q15858).
T1 construct: expressed in transfected cells
As to the kind of experiment: Tritiated compound competitive binding to membranes from cells heterologously expressing hNav1.7 and the β1 subunit (LBA). The conditions noted are these: competition with 100 pM [3H]compound, 18 h, room temperature; IC50 by 4 parameter logistic model. An outline of the steps: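 Membranes were incubated 18 h at room temperature with 100 pM [3H]-labelled NaV1.7 inhibitor and increasing test compound in 100 mM NaCl, 20 mM Tris HCl, pH 7.4. Bound radioligand was filtered on PEI-soaked GF/C, washed, and counted by scintillation. IC50 from a 4-parameter logistic fit of % inhibition.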
T1 sequence (Q15858 whole entry): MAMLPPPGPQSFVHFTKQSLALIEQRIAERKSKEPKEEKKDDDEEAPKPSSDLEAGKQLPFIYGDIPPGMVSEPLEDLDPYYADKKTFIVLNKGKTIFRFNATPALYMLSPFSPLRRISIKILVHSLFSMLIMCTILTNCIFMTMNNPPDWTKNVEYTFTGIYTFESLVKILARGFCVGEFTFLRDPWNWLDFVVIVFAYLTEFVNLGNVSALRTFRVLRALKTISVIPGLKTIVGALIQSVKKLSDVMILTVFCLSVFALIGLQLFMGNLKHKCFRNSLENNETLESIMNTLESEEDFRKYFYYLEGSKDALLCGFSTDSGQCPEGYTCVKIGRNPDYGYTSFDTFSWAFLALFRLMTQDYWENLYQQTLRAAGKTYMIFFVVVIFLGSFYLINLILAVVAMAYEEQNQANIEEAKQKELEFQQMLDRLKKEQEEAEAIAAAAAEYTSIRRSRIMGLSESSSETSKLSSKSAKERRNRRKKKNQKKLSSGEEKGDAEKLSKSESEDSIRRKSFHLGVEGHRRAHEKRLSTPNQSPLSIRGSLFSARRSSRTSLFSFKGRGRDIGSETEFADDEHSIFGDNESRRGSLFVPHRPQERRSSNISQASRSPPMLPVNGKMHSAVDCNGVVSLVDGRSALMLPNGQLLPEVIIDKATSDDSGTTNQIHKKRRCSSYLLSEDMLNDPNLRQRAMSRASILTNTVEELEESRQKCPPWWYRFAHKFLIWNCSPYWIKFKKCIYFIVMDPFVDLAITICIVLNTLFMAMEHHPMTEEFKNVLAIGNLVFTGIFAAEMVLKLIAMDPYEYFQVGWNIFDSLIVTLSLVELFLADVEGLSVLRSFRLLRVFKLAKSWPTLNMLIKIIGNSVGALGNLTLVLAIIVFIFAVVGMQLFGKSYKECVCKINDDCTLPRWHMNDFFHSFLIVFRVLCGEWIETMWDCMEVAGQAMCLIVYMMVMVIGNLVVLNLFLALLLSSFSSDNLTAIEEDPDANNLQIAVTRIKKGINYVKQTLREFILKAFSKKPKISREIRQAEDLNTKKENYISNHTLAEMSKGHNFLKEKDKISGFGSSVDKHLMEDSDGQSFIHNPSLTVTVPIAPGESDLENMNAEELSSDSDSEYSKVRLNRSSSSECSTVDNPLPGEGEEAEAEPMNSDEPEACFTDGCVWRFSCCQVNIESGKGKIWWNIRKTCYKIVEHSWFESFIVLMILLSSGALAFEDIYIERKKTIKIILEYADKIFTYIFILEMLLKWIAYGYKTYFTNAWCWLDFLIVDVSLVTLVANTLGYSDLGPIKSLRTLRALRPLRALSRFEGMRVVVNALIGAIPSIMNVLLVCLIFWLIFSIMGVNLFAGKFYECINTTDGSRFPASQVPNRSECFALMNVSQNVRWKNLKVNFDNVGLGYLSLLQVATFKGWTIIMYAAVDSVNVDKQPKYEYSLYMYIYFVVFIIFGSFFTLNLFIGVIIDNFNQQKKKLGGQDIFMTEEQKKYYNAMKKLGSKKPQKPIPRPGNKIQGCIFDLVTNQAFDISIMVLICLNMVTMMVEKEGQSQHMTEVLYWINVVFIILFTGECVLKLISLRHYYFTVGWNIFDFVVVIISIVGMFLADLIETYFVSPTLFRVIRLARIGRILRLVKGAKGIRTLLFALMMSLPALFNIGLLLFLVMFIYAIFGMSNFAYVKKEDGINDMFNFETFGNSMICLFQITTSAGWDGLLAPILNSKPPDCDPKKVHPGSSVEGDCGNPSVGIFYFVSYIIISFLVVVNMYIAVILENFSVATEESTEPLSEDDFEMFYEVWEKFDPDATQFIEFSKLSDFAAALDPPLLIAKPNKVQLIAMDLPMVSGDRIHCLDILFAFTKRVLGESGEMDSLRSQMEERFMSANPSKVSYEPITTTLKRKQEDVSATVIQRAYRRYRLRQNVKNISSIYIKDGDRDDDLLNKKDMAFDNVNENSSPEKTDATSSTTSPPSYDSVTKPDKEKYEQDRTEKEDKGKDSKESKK
T1 sequence (Q07699 19-218 partner): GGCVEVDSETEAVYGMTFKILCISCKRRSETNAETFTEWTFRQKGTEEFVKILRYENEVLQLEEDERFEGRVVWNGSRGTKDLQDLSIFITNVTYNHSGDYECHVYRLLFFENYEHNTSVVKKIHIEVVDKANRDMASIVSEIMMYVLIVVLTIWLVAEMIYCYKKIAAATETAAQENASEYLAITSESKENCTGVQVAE
`O=S(=O)(Nc1ncns1)c1ccc2c(c1)OCC[C@@H]2N1CCC[C@H]1c1ccccc1` (single isomer, unassigned) [Example 39]: the “Nav1.7 (LBA)” value is 0.274 µM.

`O=S(=O)(Nc1ncccn1)c1cc2c(cc1F)C(N1CCC(C(F)(F)F)CC1c1ccc(F)cc1)CCO2` (racemic) [Example 96, (±)-(R)-6-fluoro-4-((cis)-2-(4-fluorophenyl)-4-(trifluoromethyl)piperidin-1-yl)-N-(pyrimidin-2-yl)chromane-7-sulfonamide]: the “Nav1.7 (LBA)” value turned out to be 0.00994 µM.

On to `O=S(=O)(Nc1ncns1)c1ccc(CN2CCC[C@@H]2c2ccccc2)c(Cl)c1` [Example 49, (R)-3-chloro-4-((2-phenylpyrrolidin-1-yl)methyl)-N-(1,2,4-thiadiazol-5-yl)benzenesulfonamide], for which the “Nav1.7 (LBA)” value stood at 6.81 µM.

`O=S(=O)(Nc1ncns1)c1ccc2c(c1)OCC[C@H]2N1CCC(F)(F)C[C@H]1c1ccccc1` (single isomer, unassigned) [Example 139]: the “Nav1.7 (LBA)” value is 2.29 µM.

On to `N#C[C@H]1CCN([C@H]2CCOc3cc(S(=O)(=O)Nc4ncns4)ccc32)[C@@H](c2ccc(F)cc2)C1` [Example 179, (S)-4-((2R,4S)-4-cyano-2-(4-fluorophenyl)piperidin-1-yl)-N-(1,2,4-thiadiazol-5-yl)chroman-7-sulfonamide], for which the “Nav1.7 (LBA)” value was 0.0109 µM.

As to `O=S(=O)(Nc1ncns1)c1cc2c(cc1F)[C@@H](N1CCCC[C@H]1c1ccc(F)cc1)CCO2` (racemic) [Example 87, (±)-(S)-6-fluoro-4-((S)-2-(4-fluorophenyl)piperidin-1-yl)-N-(1,2,4-thiadiazol-5-yl)chromane-7-sulfonamide], the “Nav1.7 (LBA)” value was found to be 0.00726 µM.

As for `C[C@@H]1CCN(Cc2cc(F)c(S(=O)(=O)Nc3ncns3)cc2F)[C@H](c2ccccc2)C1` (single isomer, unassigned) [Example 6], the “Nav1.7 (LBA)” value amounted to 0.17 µM.

On to `O=S(=O)(Nc1ncns1)c1ccc2c(c1)OCC[C@H]2N1CC[C@@H](CF)C[C@H]1c1ccc(F)cc1` [Example 181, (R)-4-((2S,4R)-4-(fluoromethyl)-2-(4-fluorophenyl)piperidin-1-yl)-N-(1,2,4-thiadiazol-5-yl)chroman-7-sulfonamide], for which the “Nav1.7 (LBA)” value was 0.735 µM.

`N#C[C@@H]1CCN([C@@H]2CCOc3cc(S(=O)(=O)Nc4ncns4)ccc32)[C@H](c2ccc(F)cc2)C1` [Example 178, (R)-4-((2S,4R)-4-cyano-2-(4-fluorophenyl)piperidin-1-yl)-N-(1,2,4-thiadiazol-5-yl)chroman-7-sulfonamide]: the “Nav1.7 (LBA)” value is 1.02 µM.

Regarding `O=S(=O)(Nc1ncns1)c1ccc2c(c1)OCC[C@H]2N1CC[C@@H](C(F)(F)F)C[C@H]1c1ccn[nH]1` (single isomer, unassigned) [Example 144], the “Nav1.7 (LBA)” value is 0.282 µM.

With `O=S(=O)(Nc1ncns1)c1ccc2c(c1)OCC[C@@H]2N1CCNC[C@H]1c1ccc(F)cc1` [Example 218, (S)-4-((R)-2-(4-fluorophenyl)piperazin-1-yl)-N-(1,2,4-thiadiazol-5-yl)chromane-7-sulfonamide], the “Nav1.7 (LBA)” value worked out at 0.0941 µM.

Regarding `O=S(=O)(Nc1ncns1)c1cc(F)c(CN2CC[C@@H](F)C[C@@H]2c2ccccc2)cc1F` (single isomer, unassigned) [Example 30], the “Nav1.7 (LBA)” value amounted to 1.71 µM.

In the case of `O=S(=O)(Nc1ncns1)c1ccc2c(c1)OCC[C@@H]2N1CC[C@H](C(F)(F)F)C[C@@H]1c1ccn[nH]1` (single isomer, unassigned) [Example 145], the “Nav1.7 (LBA)” value turned out to be 0.0117 µM.

In the case of `O=S(=O)(Nc1ncns1)c1ccc2c(c1)OCC[C@@H]2N1CC[C@@H](OC(F)(F)F)C[C@H]1c1ccc(F)cc1` [Example 174, (S)-4-((2S,4R)-2-(4-fluorophenyl)-4-(trifluoromethoxy)piperidin-1-yl)-N-(1,2,4-thiadiazol-5-yl)chroman-7-sulfonamide], the “Nav1.7 (LBA)” value amounted to 0.235 µM.

As for `O=S(=O)(Nc1nccs1)c1ccc2c(c1)OCC[C@@H]2N1CCCC[C@H]1c1ccc(F)cc1` (single isomer, unassigned) [Example 101], the “Nav1.7 (LBA)” value was found to be 0.022 µM.

Turning to `N#CC1CC12CCN([C@H]1CCOc3cc(S(=O)(=O)Nc4ncns4)ccc31)CC2` (some centres unmarked) [Example 154], the “Nav1.7 (LBA)” value worked out at 4.52 µM.

Turning to `O=S(=O)(Nc1cccc(F)n1)c1ccc(CN2CCCC[C@H]2c2ccccc2)c(Cl)c1` [Example 73, (S)-3-chloro-N-(6-fluoropyridin-2-yl)-4-((2-phenylpiperidin-1-yl)methyl)-benzenesulfonamide], the “Nav1.7 (LBA)” value is 6.8 µM.

On to `O=S(=O)(Nc1ncns1)c1ccc2c(c1)OCC[C@@H]2N1CC[C@@](O)(C(F)(F)F)C[C@H]1c1ccc(F)cc1` [Example 168, (S)-4-((2S,4S)-2-(4-fluorophenyl)-4-hydroxy-4-(trifluoromethyl)piperidin-1-yl)-N-(1,2,4-thiadiazol-5-yl)chroman-7-sulfonamide], for which the “Nav1.7 (LBA)” value came to 0.000878 µM.

On to `O=S(=O)(Nc1ncns1)c1ccc2c(c1)OCC[C@H]2N1CC[C@H](C(F)F)C[C@@H]1c1ccc(F)cc1` [Example 188, (R)-4-((2R,4S)-4-(difluoromethyl)-2-(4-fluorophenyl)piperidin-1-yl)-N-(1,2,4-thiadiazol-5-yl)chroman-7-sulfonamide], for which the “Nav1.7 (LBA)” value worked out at 0.131 µM.

Turning to `O=S(=O)(Nc1ncns1)c1ccc2c(c1)OCC[C@@H]2N1CC[C@@H](C(F)(F)F)C[C@H]1c1ccn[nH]1` (single isomer, unassigned) [Example 143], the “Nav1.7 (LBA)” value amounted to 8.9 µM.

As for `O=S(=O)(Nc1ncns1)c1ccc2c(c1)OCC[C@H]2N1CC[C@H](C(F)(F)F)C[C@@H]1c1ccn[nH]1` (single isomer, unassigned) [Example 146], the “Nav1.7 (LBA)” value is 0.308 µM.

For `O=S(=O)(Nc1ncns1)c1ccc2c(c1)OCC[C@@H]2N1CC[C@H](C(F)F)C[C@@H]1c1ccc(F)cc1` [Example 187, (S)-4-((2R,4S)-4-(difluoromethyl)-2-(4-fluorophenyl)piperidin-1-yl)-N-(1,2,4-thiadiazol-5-yl)chroman-7-sulfonamide], the “Nav1.7 (LBA)” value was 0.00255 µM.

As for `CC(C)(O)[C@H]1CCN([C@H]2CCOc3cc(S(=O)(=O)Nc4ncns4)ccc32)[C@@H](c2ccc(F)cc2)C1` (single isomer, unassigned) [Example 136], the “Nav1.7 (LBA)” value is 0.0194 µM.

`O=S(=O)(Nc1ncns1)c1ccc2c(c1)OCC[C@@H]2N1CCC(F)(F)C[C@@H]1c1ccccc1` (single isomer, unassigned) [Example 142]: the “Nav1.7 (LBA)” value is 0.0173 µM.

Regarding `O=S(=O)(Nc1ncns1)c1cc(F)c(CN2CC[C@H](F)C[C@H]2c2ccccc2)cc1F` (single isomer, unassigned) [Example 31], the “Nav1.7 (LBA)” value came to 0.374 µM.

For `O=S(=O)(Nc1ncns1)c1ccc(CN2CCC[C@H]2c2ccccc2)c(Cl)c1` [Example 48, (S)-3-chloro-4-((2-phenylpyrrolidin-1-yl)methyl)-N-(1,2,4-thiadiazol-5-yl)benzenesulfonamide], the “Nav1.7 (LBA)” value came to 1.48 µM.

As to `Nc1[nH]ncc1C1CCCCN1Cc1cc(F)c(S(=O)(=O)Nc2ncns2)cc1F` (centres unmarked) [Example 118, 4-((2-(5-Amino-1H-pyrazol-4-yl)piperidin-1-yl)methyl)-2,5-difluoro-N-(1,2,4-thiadiazol-5-yl)benzenesulfonamide], the “Nav1.7 (LBA)” value turned out to be 2.26 µM.

Turning to `O=S(=O)(Nc1nccs1)c1cc2c(cc1F)[C@@H](N1CC[C@H](C(F)(F)F)C[C@@H]1c1ccn[nH]1)CCO2` [Example 212, (S)-4-((2R,4S)-2-(1H-pyrazol-5-yl)-4-(trifluoromethyl)piperidin-1-yl)-6-fluoro-N-(thiazol-2-yl)chromane-7-sulfonamide], the “Nav1.7 (LBA)” value was 0.0033 µM.

For the compound `O=S(=O)(Nc1nccs1)c1cc2c(cc1F)[C@H](N1CC[C@H](C(F)(F)F)C[C@@H]1c1ccn[nH]1)CCO2` [Example 213, (R)-4-((2R,4S)-2-(1H-pyrazol-5-yl)-4-(trifluoromethyl)piperidin-1-yl)-6-fluoro-N-(thiazol-2-yl)chromane-7-sulfonamide], the “Nav1.7 (LBA)” value turned out to be 0.0274 µM.

Turning to `O=S(=O)(Nc1ncns1)c1cc(F)c(CN2CCC(F)(F)C[C@H]2c2ccccc2)cc1F` (single isomer, unassigned) [Example 32], the “Nav1.7 (LBA)” value amounted to 0.18 µM.

Take `O=S(=O)(Nc1ncns1)c1ccc2c(c1)OCC[C@@H]2N1CC[C@](O)(C(F)(F)F)C[C@@H]1c1ccc(F)cc1` [Example 169, (S)-4-((2R,4R)-2-(4-fluorophenyl)-4-hydroxy-4-(trifluoromethyl)piperidin-1-yl)-N-(1,2,4-thiadiazol-5-yl)chroman-7-sulfonamide]: the “Nav1.7 (LBA)” value worked out at 0.0682 µM.

With `O=S(=O)(Nc1ncns1)c1cc(F)c(CN2CC[C@H](OC(F)(F)F)C[C@H]2c2ccccc2)cc1F` (single isomer, unassigned) [Example 36], the “Nav1.7 (LBA)” value stood at 0.538 µM.

Regarding `O=S(=O)(Nc1nccs1)c1cc2c(cc1F)[C@H](N1CC[C@H](C(F)(F)F)C[C@@H]1c1ccc(F)cc1)CCO2` [Example 209, (R)-6-fluoro-4-((2R,4S)-2-(4-fluorophenyl)-4-(trifluoromethyl)piperidin-1-yl)-N-(thiazol-2-yl)chromane-7-sulfonamide], the “Nav1.7 (LBA)” value was determined as 0.0683 µM.

With `Cn1nccc1[C@@H]1C[C@H](C(F)(F)F)CCN1[C@@H]1CCOc2cc(S(=O)(=O)Nc3ncns3)ccc21` (single isomer, unassigned) [Example 124], the “Nav1.7 (LBA)” value was determined as 0.601 µM.

On to `O=S(=O)(Nc1ncns1)c1ccc2c(c1)OCC[C@H]2N1CC[C@@H](C(F)(F)F)C[C@H]1c1ccccn1` [Example 191, (R)-4-((2S,4R)-2-(pyridin-2-yl)-4-(trifluoromethyl)piperidin-1-yl)-N-(1,2,4-thiadiazol-5-yl)chroman-7-sulfonamide], for which the “Nav1.7 (LBA)” value was determined as 0.176 µM.

(Values after US10787446B2 (GENENTECH, INC., priority 2015, dated 2020).)
